Results published in article PMC9080489, “Synthesis and biological evaluation of 2-aryl-benzimidazole derivatives of dehydroabietic acid as novel tubulin polymerization inhibitors” (RSC Advances, 2018).
Like-named read-outs stand apart in the source and are kept apart here.

How the values were obtained:
[1] = test system: human hepatocarcinoma cell line (SMMC-7721); assay: MTT cytotoxic assay, SMMC-7721; assay type: cell-based; settings: MTT, 48 h exposure, read-out: IC50 SMMC-7721
Procedure: (§1) The in vitro antiproliferative activity of DAA derivatives (1–5, 6a–k, 7a–k) were evaluated by MTT assay against human hepatocarcinoma cell line (SMMC-7721), human breast cancer cell line (MDA-MB-231), human cervical carcinoma cell line (HeLa), mouse colon cancer cell line (CT-26) and human normal hepatocyte cell line (QSG-7701). Nocodazole was co-assayed as the positive control and DMEM culture medium containing 0.1% DMSO was used as negative control. The results of the tested compounds expressed as IC50 values (concentration required to inhibit tumor cell proliferation by 50%) were presented in Table 1.
(§2) The human hepatocarcinoma cell line (SMMC-7721), human breast cancer cell line (MDA-MB-231), human cervical carcinoma cell line (HeLa), mouse colon cancer cell line (CT-26) and human normal hepatocyte cells (QSG-7701) used in this study were all obtained from Keygene Biotech., China. These cell lines were maintained in DMEM medium supplemented with 10% heat-inactivated fetal bovine serum in a humidified atmosphere of 5% CO2 at 37 °C.
(§3) The in vitro cytotoxic activities of the benzimidazole derivatives of dehydroabietic acid were evaluated against tested cell lines via the MTT colorimetric method. Briefly, different tumor cells were grown in DMEM medium supplemented with 10% fetal bovine serum, penicillin (100 U mL^−1), and streptomycin (50 μg mL^−1). Cells were harvested at log phase of growth and seeded in 96-well plates (100 μL per well at a density of 2 × 10^5 cells mL^−1). After 24 h incubation at 37 °C and 5% CO2 to allow cell attachment, cultures were exposed to various concentrations of the isolated compounds for 48 h. Finally, MTT solution (2.5 mg mL^−1 in PBS) was added (40 μL per well). Plates were further incubated for 4 h at 37 °C, and the formazan crystals formed were dissolved by adding 150 μL per well of DMSO. Absorption at 570 nm was measured with an ELISA plate reader. The results were expressed as IC50 values with standard deviations, which was defined as the concentration at which 50% survival of cells was discerned. Nocodazole was co-assayed as positive control.

[2] = test system: mouse colon cancer cell line (CT-26); assay: MTT cytotoxic assay, CT-26; assay type: cell-based; settings: MTT, 48 h exposure, read-out: IC50 CT-26
Procedure: as §1, §2, §3

[3] = test system: human cervical carcinoma cell line (HeLa); assay: MTT cytotoxic assay, HeLa; assay type: cell-based; settings: MTT, 48 h exposure, read-out: IC50 HeLa
Procedure: as §1, §2, §3

[4] = test system: human normal hepatocyte cell line (QSG-7701); assay: MTT cytotoxic assay, QSG-7701; assay type: cell-based; settings: QSG7701, 48 h exposure
Procedure: as §1, §2, §3

[5] = test system: human breast cancer cell line (MDA-MB-231); assay: MTT cytotoxic assay, MDA-MB-231; assay type: cell-based; settings: MDA-MB-231, MTT, 48 h exposure, read-out: IC50 MDA-MB-231
Procedure: as §1, §2, §3

Porcine brain tubulin = biological target: T1, Porcine brain tubulin (Sus scrofa, UniProt P02550+P02554); assay: In vitro tubulin polymerization inhibition assay (OD340); assay type: biochemical; settings: 10 μM, 37 °C, 1 h, versus blank control
T1 construct: purchased Cytoskeleton, Inc. BK004P; host or cells: porcine brain tissue
T1 sequence (P02554 whole entry): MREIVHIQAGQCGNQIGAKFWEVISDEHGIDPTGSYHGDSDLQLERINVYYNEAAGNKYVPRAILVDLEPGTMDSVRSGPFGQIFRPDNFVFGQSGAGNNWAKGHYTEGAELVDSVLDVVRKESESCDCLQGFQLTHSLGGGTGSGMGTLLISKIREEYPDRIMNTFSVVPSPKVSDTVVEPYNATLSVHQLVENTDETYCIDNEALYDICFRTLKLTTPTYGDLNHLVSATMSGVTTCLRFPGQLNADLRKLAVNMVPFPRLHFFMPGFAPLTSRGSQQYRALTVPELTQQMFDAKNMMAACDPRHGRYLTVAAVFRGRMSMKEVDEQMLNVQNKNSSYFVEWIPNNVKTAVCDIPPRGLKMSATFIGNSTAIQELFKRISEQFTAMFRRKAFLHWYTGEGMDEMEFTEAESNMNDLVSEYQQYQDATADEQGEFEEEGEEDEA
T1 sequence (P02550 whole entry): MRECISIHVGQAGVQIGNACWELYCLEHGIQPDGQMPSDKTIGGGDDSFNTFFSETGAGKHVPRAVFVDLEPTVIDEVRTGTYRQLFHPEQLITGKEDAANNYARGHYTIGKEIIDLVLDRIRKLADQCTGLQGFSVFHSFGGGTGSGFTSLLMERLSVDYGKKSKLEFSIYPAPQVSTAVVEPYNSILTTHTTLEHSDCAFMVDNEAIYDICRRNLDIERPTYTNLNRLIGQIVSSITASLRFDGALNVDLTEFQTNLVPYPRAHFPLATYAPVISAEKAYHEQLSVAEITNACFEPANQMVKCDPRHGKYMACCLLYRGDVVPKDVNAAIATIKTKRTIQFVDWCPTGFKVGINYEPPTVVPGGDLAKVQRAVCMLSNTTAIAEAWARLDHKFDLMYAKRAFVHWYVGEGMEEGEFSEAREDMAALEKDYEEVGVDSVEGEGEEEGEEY
Procedure: The in vitro tubulin polymerization inhibition assay was carried out by using the Tubulin Polymerization Assay Kit (Cytoskeleton, Inc., USA) according to the protocol in the manual. Porcine brain tubulin was incubated with compound 6j at concentrations of 5 and 10 μM. The positive control colchicine and negative control taxol were co-assayed at the concentration of 10 μM, and G-PEM buffer was used as the blank control.
The tubulin polymerization assay was accomplished using a commercial assay kit (cat. #BK004P) purchased from Cytoskeleton, Inc. (Danvers, MA, USA). Tubulin isolated from porcine brain tissue was used in this tubulin polymerization assay kit. Tubulin polymerizations are followed by an increase in optical density at 340 nm (OD340) over a 60 min period at 37 °C due to the light scattered by microtubule polymer. At first, tubulin (4 mg) was disovled in 1 mL of G-PEM buffer containing 80 mM piperazine-N,N′-bis(2-ethanesulfonic acid) sequisodium salt (PIPES, pH 6.9), 2.0 mM MgCl2, 0.5 mM EGTA and 1 mM GTP to prepare tubulin solution. Subsequently, 10 μL of 10 × stock solutions of the tested compounds at different concentrations were added to a prewarmed 96-well plate and incubated at 37 °C for 2 min, then 90 μL of tubulin solution was also added into each well to initiate the reaction. The optical intensity (OD340) of each well was recorded every 60 s for 60 min (Cytation 3 Cell Imaging Multi-Mode Reader, BioTek Instruments, Inc., USA). Colchicine and taxol were co-assayed as the positive control and negative control, respectively. G-PEM buffer was used as the blank control.

With `COC(=O)[C@]1(C)CCC[C@]2(C)c3cc(-c4cc(OC)c(OC)c(OC)c4)c4nc(-c5ccc(Cl)cc5)[nH]c4c3CCC12` (stereo partly shown) [Compound 7f, Methyl 2′-(4-chlorophenyl)-12-(3,4,5-trimethoxyphenyl)-13,14-imidazolyl-deisopropyl-dehydroabietate] the IC50 ([1]; Homo sapiens, SMMC-7721, 48 h) was 11 ± 2.68 µM, the IC50 [2] was 3.44 ± 0.75 µM and the IC50 ([2]; Mus musculus, CT26, 48 h) was < 5 µM. For the same molecule, the melting point was 168 to 170 °C, the IC50 [3] was 17.2 ± 2.32 µM and the IC50 [4] was > 50 µM. For the same molecule, the IC50 [5] was 10.1 ± 1.38 µM.

In the case of `COC(=O)[C@]1(C)CCC[C@]2(C)c3cc(Br)c4nc(-c5cccc(F)c5)[nH]c4c3CCC12` (stereo partly shown) [Compound 6d, Methyl 2′-(3-fluorophenyl)-12-bromo-13,14-imidazolyl-deisopropyl-dehydroabietate], the IC50 ([1]; Homo sapiens, SMMC-7721, 48 h) is reported as < 5 µM, the IC50 [1] is reported as 5.27 ± 0.27 µM and the IC50 [2] is reported as 3.39 ± 0.33 µM. The IC50 ([2]; Mus musculus, CT26, 48 h) was < 5 µM, the melting point was 142 to 144 °C and the IC50 [3] was 17.7 ± 3.02 µM. The IC50 [4] was > 50 µM and the IC50 [5] was 12 ± 1.31 µM.

For `COC(=O)[C@]1(C)CCC[C@]2(C)c3cc(-c4cc(OC)c(OC)c(OC)c4)c4nc(-c5cccc(F)c5)[nH]c4c3CCC12` (stereo partly shown) [Compound 7d, Methyl 2′-(3-fluorophenyl)-12-(3,4,5-trimethoxyphenyl)-13,14-imidazolyl-deisopropyl-dehydroabietate], the IC50 ([1]; Homo sapiens, SMMC-7721, 48 h) was > 50 µM, the IC50 [2] was 2.7 ± 0.12 µM and the IC50 ([2]; Mus musculus, CT26, 48 h) was < 5 µM. For the same molecule, the melting point was 156 to 158 °C, the IC50 [3] was 12.9 ± 1.26 µM and the IC50 [4] was > 50 µM. It also gave an IC50 [5] of 6.42 ± 0.04 µM.

`COC(=O)[C@]1(C)CCC[C@]2(C)c3cc(Br)c4nc(-c5ccccc5)[nH]c4c3CCC12` (stereo partly shown) [Compound 6a, Methyl 2′-phenyl-12-bromo-13,14-imidazolyl-deisopropyl-dehydroabietate] gave an IC50 ([1]; Homo sapiens, SMMC-7721, 48 h) of 12.5 ± 0.45 µM, an IC50 ([2]; Mus musculus, CT26, 48 h) of 6.34 ± 0.83 µM and a melting point of 123 to 125 °C. For the same molecule, the IC50 [3] was 16.2 ± 1.73 µM, the IC50 [4] was > 50 µM and the IC50 [5] was 41.7 ± 2.06 µM.

For `COC(=O)[C@]1(C)CCC[C@]2(C)c3cc(-c4cc(OC)c(OC)c(OC)c4)c4nc(-c5ccccc5)[nH]c4c3CCC12` (stereo partly shown) [Compound 7a, Methyl 2′-phenyl-12-(3,4,5-trimethoxyphenyl)-13,14-imidazolyl-deisopropyl-dehydroabietate], the IC50 ([1]; Homo sapiens, SMMC-7721, 48 h) was 9.38 ± 1.02 µM, the IC50 ([2]; Mus musculus, CT26, 48 h) was 8.25 ± 0.5 µM and the melting point was 153 to 155 °C. The IC50 [3] was 13.1 ± 1.7 µM, the IC50 [4] was > 50 µM and the IC50 [5] was > 50 µM.

In the case of `COC(=O)[C@]1(C)CCC[C@]2(C)c3cc(-c4cc(OC)c(OC)c(OC)c4)c4nc(-c5ccc(Br)cc5)[nH]c4c3CCC12` (stereo partly shown) [Compound 7h, Methyl 2′-(4-bromophenyl)-12-(3,4,5-trimethoxyphenyl)-13,14-imidazolyl-deisopropyl-dehydroabietate], the IC50 ([1]; Homo sapiens, SMMC-7721, 48 h) is reported as > 50 µM, the IC50 [2] is reported as 2.76 ± 0.26 µM and the IC50 ([2]; Mus musculus, CT26, 48 h) is reported as < 5 µM. For the same molecule, the melting point was 150 to 152 °C, the IC50 [3] was 29.9 ± 3.07 µM and the IC50 [4] was > 50 µM. The IC50 [5] was 8.84 ± 1.08 µM.

In the case of `COC(=O)[C@]1(C)CCC[C@]2(C)c3cc(-c4cc(OC)c(OC)c(OC)c4)c4nc(-c5ccc(F)cc5)[nH]c4c3CCC12` (stereo partly shown) [Compound 7c, Methyl 2′-(4-fluorophenyl)-12-(3,4,5-trimethoxyphenyl)-13,14-imidazolyl-deisopropyl-dehydroabietate], the IC50 ([1]; Homo sapiens, SMMC-7721, 48 h) is reported as < 5 µM, the IC50 [1] is reported as 3.29 ± 0.13 µM and the IC50 ([2]; Mus musculus, CT26, 48 h) is reported as 8.95 ± 0.17 µM. For the same molecule, the melting point was 139 to 141 °C, the IC50 [3] was 7.63 ± 1.03 µM and the IC50 [4] was 36.1 ± 2.32 µM. For the same molecule, the IC50 [5] was 0.69 ± 0.21 µM.

In the case of `CC(=O)O[C@H]1C(=O)[C@@]2(C)[C@H]([C@H](OC(=O)c3ccccc3)[C@]3(O)C[C@H](OC(=O)[C@H](O)[C@@H](NC(=O)c4ccccc4)c4ccccc4)C(C)=C1C3(C)C)[C@]1(OC(C)=O)CO[C@@H]1C[C@@H]2O` [taxol, reference compound], the “effect on tubulin polymerization speed and final absorbance (OD340)” value (Porcine brain tubulin) is reported as “obviously increased the speed of tubulin polymerization and the final absorbance”.
